≈ marks a conversion by molar mass, not a printed value. Calls of active or inactive are those of the source. No cut-off for these calls is given here.
Key:
[1] = test system: Mycobacterium tuberculosis; experiment: microbe, parasite or virus in culture; details: H37Ra
Description: Antimycobacterial activity against autoluminescent Mycobacterium tuberculosis H37Ra assessed as inhibition of bacterial growth measured after 3 to 7 days by luminescence based analysis

[2] = test system: Mycobacterium tuberculosis; format: functional; details: H37Ra
in vitro = details: human, HepG2 cells
Description: Cytotoxicity against human HepG2 cells assessed as reduction in cell viability

[3] = test system: Mycolicibacterium smegmatis; experiment: Antimycobacterial activity against Mycobacterium smegmatis […] assessed as inhibition of bacterial growth incubated for 48 hrs by spectrophotometer; format: functional
[4] = target: T1, Decaprenylphosphoryl-beta-D-ribose oxidase (Mycobacterium tuberculosis (strain ATCC 25618 / H37Rv), UniProt P9WJF1)
T1 sequence (P9WJF1 whole entry): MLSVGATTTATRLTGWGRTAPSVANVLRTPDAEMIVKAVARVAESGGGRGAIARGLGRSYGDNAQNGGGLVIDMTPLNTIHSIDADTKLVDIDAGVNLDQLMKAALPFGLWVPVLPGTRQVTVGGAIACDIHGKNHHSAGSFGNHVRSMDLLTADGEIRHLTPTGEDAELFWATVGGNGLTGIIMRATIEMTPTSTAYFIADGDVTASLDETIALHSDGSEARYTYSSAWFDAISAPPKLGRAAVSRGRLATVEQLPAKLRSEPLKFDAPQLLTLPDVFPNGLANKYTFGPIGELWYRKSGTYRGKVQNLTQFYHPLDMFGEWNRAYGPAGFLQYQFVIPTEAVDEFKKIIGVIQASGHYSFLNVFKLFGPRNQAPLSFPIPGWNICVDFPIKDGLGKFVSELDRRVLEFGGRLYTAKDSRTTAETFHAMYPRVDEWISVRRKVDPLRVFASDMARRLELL
Description: Binding affinity to Mycobacterium tuberculosis DprE1 assessed as dissociation constant by biolayer interferometry

[5] = Antimicrobial activity against Akkermansia muciniphila assessed as inhibition of microbial growth upto 2 uM; format: toxicity
[6] = Antimicrobial activity against Lactobacillus reuteri assessed as inhibition of microbial growth upto 2 uM; format: toxicity; details: limosilactobacillus reuteri
[7] = Antimicrobial activity against Clostridium tyrobutyricum assessed as inhibition of microbial growth upto 2 uM; format: toxicity
[8] = target: T2, Decaprenylphosphoryl-beta-D-ribose oxidase (Mycobacterium tuberculosis (strain ATCC 25618 / H37Rv)) (UniProt P9WJF1); experiment: Binding affinity to Mycobacterium tuberculosis DprE1 upto 166.7 microM by biolayer interferometry
T2 sequence (whole entry): T1 sequence (P9WJF1 whole entry)

[9] = Antimicrobial activity against Bifidobacterium pseudocatenulatum assessed as inhibition of microbial growth upto 2 uM; format: toxicity
[10] = test system: Mycolicibacterium smegmatis; experiment: Antimycobacterial activity against Mycobacterium smegmatis […] assessed as inhibition of bacterial growth at 10 uM incubated for 48 hrs by spectrophotometer relative to control; format: functional
[11] = test system: Mycolicibacterium smegmatis; experiment: Synergistic antimycobacterial activity against Mycobacterium smegmatis assessed as inhibition of bacterial growth at 0.5 times MIC50 incubated for 7 days in presence of 0.5 times MIC50 of rifampicin by checkerboard assay; format: functional, organism-based; details: time 7.0 day
[12] = Cytotoxicity against human Chang liver cells assessed as inhibition of cell growth; format: toxicity, cell-based
[13] = test system: Mycolicibacterium smegmatis; experiment: Synergistic antimycobacterial activity against Mycobacterium smegmatis assessed as inhibition of bacterial growth at 0.5 times MIC50 incubated for 7 days in presence of 0.5 times MIC50 of ethambutol by checkerboard assay; format: functional, organism-based; details: time 7.0 day
[14] = test system: Mycobacterium tuberculosis; experiment: Antimycobacterial activity against Mycobacterium tuberculosis assessed as inhibition of bacterial growth incubated for 24 hrs by alamar blue assay; format: functional

| SMILES | MIC90 [1] [µM] | IC50 (in vitro) [µM] | MIC [3] [µM] | other results |
| --- | --- | --- | --- | --- |
| CCc1cc(=O)[nH]c(-n2nc(C)cc2NC(C)=O)n1 | 50 (≈ 13.1 µg/mL) |  |  |  |
| Cc1cccc(Nc2cc(C)nn2-c2nc3ccccc3c(=O)[nH]2)c1 | 0.94 (≈ 0.311 µg/mL) |  |  |  |
| O=C(Cc1ccccc1)NNC(=O)c1cc([N+](=O)[O-])cc([N+](=O)[O-])c1 |  |  |  | MIC [2]: 1.25 µM (≈ 0.43 µg/mL) |
| CCc1cc(=O)[nH]c(-n2nc(C)cc2NC(=O)c2cccc(C)c2)n1 | 1.56 (≈ 0.526 µg/mL) |  |  |  |
| CCc1cc(=O)[nH]c(-n2nc(C)cc2NC(=O)C2CCCC2)n1 | 6.25 (≈ 1.97 µg/mL) |  |  |  |
| CCc1cc(=O)[nH]c(-n2nc(C)cc2NC(=O)c2cccc([N+](=O)[O-])c2)n1 | 3.12 (≈ 1.15 µg/mL) | 55.4 | 0.86 (≈ 0.317 µg/mL) |  |
| CCOC(=O)C(=O)Nc1cc(C)nn1-c1nc(C)c(CC)c(=O)[nH]1 | 30.6 (≈ 10.2 µg/mL) | 83.8 | 30.6 (≈ 10.2 µg/mL) |  |
| CCc1cc(=O)[nH]c(-n2nc(C)cc2Nc2cccc([N+](=O)[O-])c2)n1 | 1.56 (≈ 0.531 µg/mL) |  |  |  |
| Cc1cc(NC(=O)c2cccc(C(F)(F)F)c2)n(-c2nc3ccccc3c(=O)[nH]2)n1 | 1.51 (≈ 0.624 µg/mL) |  |  |  |
| CCc1ccc(N2CC(C(=O)Nc3ccccc3C(=O)Nc3nnc(CC)s3)CC2=O)cc1 (centres undefined) |  | 165 | > 50 |  |
| CCc1cc(=O)[nH]c(-n2nc(C)cc2Nc2cccc(C)c2)n1 | 0.78 (≈ 0.241 µg/mL) |  |  |  |
| Cc1cccc(C(=O)Nc2cc(C)nn2-c2nc3cc(F)ccc3c(=O)[nH]2)c1 | 1.66 (≈ 0.626 µg/mL) |  |  |  |
| Cc1cccc(C(=O)Nc2cc(C)nn2-c2nc3cc(Cl)ccc3c(=O)[nH]2)c1 | 3.18 (≈ 1.25 µg/mL) |  |  |  |
| COc1ccc2c(=O)[nH]c(-n3nc(C)cc3NC(=O)c3cccc(C)c3)nc2c1 | 6.43 (≈ 2.5 µg/mL) |  |  |  |
| CO[C@H]1/C=C/O[C@@]2(C)Oc3c(C)c(O)c4c(O)c(c(/C=N/N5CCN(C)CC5)c(O)c4c3C2=O)NC(=O)/C(C)=C\C=C\[C@H](C)[C@H](O)[C@@H](C)[C@@H](O)[C@@H](C)[C@H](OC(C)=O)[C@@H]1C [RIFAMPIN] |  |  |  | Kd [4]: 93600 µM; Activity [5]: Toxic; Activity [6]: Non-Toxic; Activity [7]: Toxic; Activity [8]: inactive |
| NNC(=O)c1ccncc1 [ISONIAZID] | 0.78 (≈ 0.107 µg/mL) | > 100 |  | Activity [6]: Non-Toxic; Activity [7]: Toxic; Activity [9]: Toxic |
| CCc1cc(=O)[nH]c(-n2nc(C)cc2N)n1 | 6.25 (≈ 1.37 µg/mL) |  |  |  |
| COc1ccc2nc(-n3nc(C)cc3NC(=O)c3cccc(C)c3)[nH]c(=O)c2c1 | 0.8 (≈ 0.312 µg/mL) |  |  |  |
| Cc1cccc(C(=O)Nc2cc(C)nn2-c2nc3ccc(F)cc3c(=O)[nH]2)c1 | 0.83 (≈ 0.313 µg/mL) |  |  |  |

| SMILES | MIC90 [1] [µM] | IC50 (in vitro) [µM] | MIC [3] [µM] | other results |
| --- | --- | --- | --- | --- |
| CCc1c(C)nc(-n2nc(C)cc2NC(=O)C2CC(=O)N(c3ccc(C)cc3)C2)[nH]c1=O (centres undefined) |  | > 100 | 29.8 (≈ 12.9 µg/mL) | inhibition at 10 µM [10]: 38% |
| Cc1cccc(C(=O)Nc2cc(C)nn2-c2nc(C3CC3)cc(=O)[nH]2)c1 | 3.12 (≈ 1.09 µg/mL) |  |  |  |
| CCc1cc(=O)[nH]c(-n2nc(C)cc2Nc2cccc(C(F)(F)F)c2)n1 | 0.78 (≈ 0.283 µg/mL) | > 100 |  | Activity [11]: Active; Kd [4]: 25 µM; Activity [5]: Non-Toxic; Activity [6]: Non-Toxic; Activity [7]: Non-Toxic; Activity [12]: Non-Toxic; Activity [9]: Non-Toxic; Activity [13]: Active |
| Cc1nc2ccc(NC(=O)c3cc([N+](=O)[O-])cc([N+](=O)[O-])c3Cl)cc2s1 |  | 86.1 | > 50 |  |
| Cc1cccc(C(=O)Nc2cc(C)nn2-c2nc3ccccc3c(=O)[nH]2)c1 | 1.56 (≈ 0.561 µg/mL) | > 100 |  | Activity [11]: Active; Activity [5]: Non-Toxic; Activity [6]: Non-Toxic; Activity [7]: Non-Toxic; Activity [12]: Non-Toxic; Activity [9]: Non-Toxic; Activity [13]: Active |
| Cc1cc(NC(=O)Cc2ccccc2)n(-c2nc3ccccc3c(=O)[nH]2)n1 | 7.22 (≈ 2.59 µg/mL) |  |  |  |
| Cc1cc(NC(=O)c2ccc(C)c(C)c2)n(-c2nc(C)c(C)c(=O)[nH]2)n1 | 3.56 (≈ 1.25 µg/mL) | 38.7 | 1.06 (≈ 0.372 µg/mL) |  |
| Cc1cc(NC(=O)c2cccnc2)n(-c2nc3ccccc3c(=O)[nH]2)n1 | 1.81 (≈ 0.627 µg/mL) |  |  |  |
| CCC(CC)C(=O)Nc1nnc(C2CC(=O)N(c3ccc(C)c(Cl)c3)C2)s1 (centres undefined) |  | 43 | > 50 |  |
| CCc1c(C)nc(-n2nc(C)cc2NC(=O)CCc2ccc(OC)cc2)[nH]c1=O | 6.32 (≈ 2.5 µg/mL) | 129 | 18 (≈ 7.11 µg/mL) |  |
| COc1ncnc(Cn2cc(C(=O)NCCO)c3ncc(C)cc32)c1C [TBA-7371] | 12.5 (≈ 4.44 µg/mL) | 165 | 2.54 (≈ 0.903 µg/mL) |  |
| C=CCN1C(=O)NC(=O)/C(=C\NNC(=O)c2ccncc2)C1=O |  |  |  | MIC [14]: 9.75 µM (≈ 3.07 µg/mL) |
| CC(=O)N1N=C(c2c(O)n(-c3ccccc3C)c(=O)[nH]c2=O)CC1c1ccccc1 (centres undefined) |  | 21 | > 50 |  |
| CCOc1ccc(CC(=O)Nc2cc(C)nn2-c2nc3c(c(=O)[nH]2)CCC3)cc1 | 18.5 (≈ 7.26 µg/mL) | 116 | 18.5 (≈ 7.26 µg/mL) |  |
| Cc1cccc(C(=O)Nc2cc(C)nn2-c2nc3ccc(Cl)cc3c(=O)[nH]2)c1 | 1.59 (≈ 0.626 µg/mL) |  |  |  |
| CCc1cc(=O)[nH]c(-n2nc(C)cc2NC(=O)c2cccc(F)c2)n1 | 6.25 (≈ 2.13 µg/mL) |  |  |  |
| CCc1c(C)nc(-n2nc(C)cc2NC(=O)COc2cccc(C)c2)[nH]c1=O | 5.98 (≈ 2.28 µg/mL) | 41.2 | 7.71 (≈ 2.94 µg/mL) |  |
| Cc1cc(NC(=O)c2ccc3ccccc3c2)n(-c2nc3c(c(=O)[nH]2)CCC3)n1 |  | 144 | > 50 |  |
| Cc1cccc(C(=O)Nc2cc(C)nn2-c2nc3ccc(C)cc3c(=O)[nH]2)c1 | 0.84 (≈ 0.314 µg/mL) |  |  |  |
